# T1: human RHBDF2, full-length, HA-tagged (RHBDF2-HA), Q6PJF5
# T1 chain: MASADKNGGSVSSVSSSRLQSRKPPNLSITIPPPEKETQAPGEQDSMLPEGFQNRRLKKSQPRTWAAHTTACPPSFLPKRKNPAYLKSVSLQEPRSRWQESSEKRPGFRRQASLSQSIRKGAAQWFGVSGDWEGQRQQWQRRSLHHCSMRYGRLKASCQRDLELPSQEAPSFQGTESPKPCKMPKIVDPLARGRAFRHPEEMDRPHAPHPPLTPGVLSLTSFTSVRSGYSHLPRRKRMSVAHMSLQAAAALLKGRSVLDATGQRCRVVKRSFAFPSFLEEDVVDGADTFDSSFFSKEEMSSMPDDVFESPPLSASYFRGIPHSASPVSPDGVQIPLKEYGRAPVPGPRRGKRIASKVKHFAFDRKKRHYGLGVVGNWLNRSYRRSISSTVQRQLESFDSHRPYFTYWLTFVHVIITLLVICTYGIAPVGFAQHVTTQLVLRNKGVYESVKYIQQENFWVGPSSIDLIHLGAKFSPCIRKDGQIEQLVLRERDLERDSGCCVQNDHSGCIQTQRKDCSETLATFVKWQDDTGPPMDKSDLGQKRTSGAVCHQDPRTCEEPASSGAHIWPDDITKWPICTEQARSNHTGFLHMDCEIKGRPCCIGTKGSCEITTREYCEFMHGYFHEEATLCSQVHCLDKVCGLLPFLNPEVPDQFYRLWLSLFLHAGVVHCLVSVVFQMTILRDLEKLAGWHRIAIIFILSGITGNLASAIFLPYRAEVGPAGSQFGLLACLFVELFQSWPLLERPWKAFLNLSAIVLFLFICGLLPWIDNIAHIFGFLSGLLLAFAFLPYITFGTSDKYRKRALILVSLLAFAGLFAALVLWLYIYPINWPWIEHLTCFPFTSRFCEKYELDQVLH
# What was measured:
# [1] = test system: TRIM31 mRNA; test: TRIM31 mRNA expression by RT-qPCR in PA/OA-induced L02 cells; assay type: cell-based, human; details: 100 μmol/L compound, PA/OA-induced L02 cells, RT-qPCR; for fold induction at 100 µM: Homo sapiens, read-out: Qdrug/Qctrl (TRIM31 mRNA expression level, drug group divided by control group)
# Experimental: Palmitic acid/oleic acid (PA/OA) was used to induce the decrease of TRIM31 mRNA expression in human hepatocyte L02 cells. The cells were divided into control group and drug group. The drug group was treated with a concentration of 100 μmol/L compound, and the expression level of TRIM31 mRNA was detected by RT-qPCR. The expression level of TRIM31 mRNA in the drug group divided by that in the control group (Qdrug/Qctrl) was used to evaluate the ability of the compounds to promote TRIM31 expression. […]
# [2] = test system: Mice with a NASH phenotype (THTG-HFHF); test: Fisetin in mice with a NASH phenotype (THTG-HFHF), liver mRNA levels; assay type: in vivo; details: 16 weeks
# Excerpt: (§1) To further investigate the protective effects of Trim31 on liver steatosis, a nonalcoholic steatohepatitis (NASH) mice model was established in accordance with previous reports (Xu Min-Xuan,Tan Jun, et al., Journal of Hazardous Materials, 2020, 400: 123158). The THTG mice were then fed with HFHF diet (14% protein, 42% fat, 44% carbohydrates, 0.2% cholesterol and with a total of 42 g/L of carbohydreate mixed in drinking water at a ratio of 55% fructose and 45% sucrose by weight) for 16 weeks to produce phenotype of NASH. Also, the NTG mice used in this design as controls and were synchronously allowed to ad libitum access to this diet for 16 weeks.
# (§2) Based on the effective protective effect of Trim31 in NAFLD, we accordingly investigated the therapeutic feasibility and effect of targeting the Trim31-Rhbdf2-MAP3K7 pathway in the development and progression of NASH. The THTG mice were then fed with an HFHF diet containing 14% protein, 42% fat, 44% carbohydrates, and 0.2% cholesterol and with a total of 42 g/L of carbohydrate mixed in drinking water at a ratio of 55% fructose and 45% sucrose by weight, for 16 weeks to generate mice with a NASH phenotype (THTG-HFHF).
# Mice with a NASH phenotype (THTG-HFHF) were constructed according to the protocol described in Example 10. A control group (Ctrl), a NASH group (THTG), and three drug groups (FIS) were set up. The three drug groups (FIS) were treated with 20 mg/kg, 40 mg/kg and 80 mg/kg fisetin (FIS) by gavage.
# [3] = test system: Mice with a NASH phenotype (THTG-HFHF); test: Betacyanin in mice with a NASH phenotype (THTG-HFHF), liver protein expression; assay type: in vivo; details: 0.2 g/kg mixed with feed, 16 weeks
# Excerpt: as §1, §2
# Mice with a NASH phenotype (THTG-HFHF) were constructed according to the protocol described in Example 10. A control group (Ctrl), a NASH group (THTG), and a drug group (BCN) were set up. The drug group was fed with 0.2 g/kg betacyanin (BCN) mixed with feed.
# [4] = test system: Mice with a NASH phenotype (THTG-HFHF); test: Carminic acid in mice with a NASH phenotype (THTG-HFHF), liver mRNA and protein levels; assay type: in vivo; details: 16 weeks
# Excerpt: as §1, §2
# Mice with a NASH phenotype (THTG-HFHF) were constructed according to the protocol described in Example 10. The control group (Ctrl), NASH-THTG group (Fru), low dose group (CAL, 0.5% CA+Fru), high dose group (CAH, 1% CA+Fru) were set up. The drug group was treated with 0.5% and 1% carminic acid (CA) by gavage.
# [5] = target: T1, human RHBDF2, full-length, HA-tagged …
molecule,measurement,setting,value
O=c1c(O)c(-c2ccc(O)c(O)c2)oc2cc(O)ccc12 [Fisetin],fold induction at 100 µM,[1],3.27
same,Collagen I mRNA level in liver,"[2]; 20, 40 and 80 mg/kg by gavage",significantly decreased
same,Fibronectin mRNA level in liver,"[2]; 20, 40 and 80 mg/kg by gavage",significantly decreased
same,TGF-β1 mRNA level in liver,"[2]; 20, 40 and 80 mg/kg by gavage",significantly decreased
same,TRIM31 mRNA level in liver,"[2]; 20, 40 and 80 mg/kg by gavage",significantly increased
same,α-SMA mRNA level in liver,"[2]; 20, 40 and 80 mg/kg by gavage",significantly decreased
same,liver fibrosis and inflammation,[2]; gavage,significantly alleviated
same,these indexes (fibrosis gene and TRIM31 mRNA levels) versus control group,[2]; high dose group (80 mg/kg),close to the normal level of the control group
Betacyanin,Collagen I protein expression level in liver,[3],significantly reduced
same,Keap1 protein expression level in liver,[3],significantly reduced
same,TGF-β1 protein expression level in liver,[3],significantly reduced
same,TRIM31 protein expression in liver,[3],increased
same,liver fibrosis and inflammation,[3],effectively alleviated
same,"Qdrug/Qctrl (TRIM31 mRNA expression level, drug group divided by control group)",[1],3.14 fold
Cc1c(C(=O)O)c(O)cc2c1C(=O)c1c(O)c([C@@H]3O[C@H](CO)[C@@H](O)[C@H](O)[C@H]3O)c(O)c(O)c1C2=O [Carminic acid],fold induction at 100 µM,[1],2.78
same,Collagen I mRNA level in liver,[4]; 0.5% and 1% CA by gavage,significantly decreased
same,Keap1 protein in liver,[4]; 0.5% and 1% CA by gavage,significantly decreased
same,MMP-9 mRNA level in liver,[4]; 0.5% and 1% CA by gavage,significantly decreased
same,TGF-β1 mRNA level in liver,[4]; 0.5% and 1% CA by gavage,significantly decreased
same,TRIM31 protein expression in liver,[4]; 0.5% and 1% CA by gavage,significantly increased
same,α-SMA mRNA level in liver,[4]; 0.5% and 1% CA by gavage,significantly decreased
same,liver fibrosis and inflammation,[4]; gavage,effectively alleviated
same,"these indexes (fibrosis genes, Keap1, TRIM31) versus control group","[4]; high dose group (CAH, 1% CA)",close to the normal level of the control group
"human TRIM31, full-length wild type, Flag-tagged (TRIM31-Flag WT) (protein) MASGQFVNKLQEEVICPICLDILQKPVTIDCGHNFCLKCITQIGETSCGFFKCPLCKTSVRKNAIRFNSLLRNLVEKIQALQASEVQSKRKEATCPRHQEMFHYFCEDDGKFLCFVCRESKDHKSHNVSLIEEAAQNYQGQIQEQIQVLQQKEKETVQVKAQGVHRVDVFTDQVEHEKQRILTEFELLHQVLEEEKNFLLSRIYWLGHEGTEAGKHYVASTEPQLNDLKKLVDSLKTKQNMPPRQLLEDIKVVLCRSEEFQFLNPTPVPLELEKKLSEAKSRHDSITGSLKKFKDQLQADRKKDENRFFKSMNKNDMKSWGLLQKNNHKMNKTSEPGSSSAGGRTTSGPPNHHSSAPSHSLFRASSAGKVTFPVCLLASYDEISGQGASSQDTKTFDVALSEELHAALSEWLTAIRAWFCEVPSS","polyubiquitination of Rhbdf2 with single-lysine ubiquitin constructs (K48O, K63O, K33O, K6O, K29O, K27O)",[5],"Trim31-mediated increase in polyubiquitination of Rhbdf2 could be greatly observed in the presence of K48-loading vector, but not with other vectors"
